One may read the Ki as a dissociation constant, usually derived from enzyme kinetics or from competition with a known ligand.

The record followed here is article PMC11290297 (Addiction neuroscience, 2024).

For experiment [1], the target named is T1, kappa opioid receptor (κOR) (Homo sapiens, UniProt P41145). In words: Gi-GloSensor cAMP assay. Type of experiment: cell-based. (In general: Changes in cAMP serve as a functional read-out for many G protein-coupled receptors.)
In experiment [2] the target is T2, α2A-AR (Homo sapiens, UniProt P08913).
T2 sequence (P08913 1-465): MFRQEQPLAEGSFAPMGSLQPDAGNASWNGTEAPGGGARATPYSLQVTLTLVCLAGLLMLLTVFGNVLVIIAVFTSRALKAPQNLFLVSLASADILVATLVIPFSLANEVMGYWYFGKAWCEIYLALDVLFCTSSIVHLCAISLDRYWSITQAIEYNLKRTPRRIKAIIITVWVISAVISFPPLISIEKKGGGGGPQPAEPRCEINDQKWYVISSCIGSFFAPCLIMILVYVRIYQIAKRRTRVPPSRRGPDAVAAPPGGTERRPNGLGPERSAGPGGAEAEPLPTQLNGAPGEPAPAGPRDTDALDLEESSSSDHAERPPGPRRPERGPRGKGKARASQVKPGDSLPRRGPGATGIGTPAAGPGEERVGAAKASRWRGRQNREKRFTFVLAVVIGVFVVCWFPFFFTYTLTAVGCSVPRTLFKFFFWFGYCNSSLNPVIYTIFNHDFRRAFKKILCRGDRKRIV
In words: radioligand competition binding. The following applies: panel labelled α2-AR. On the technique in general: Displacement assays read how much labelled ligand stays bound in the presence of the test substance.

Experiment [3] deals with T1, kappa opioid receptor (κOR). Briefly: radioligand competition binding, 3H-U69593.
For experiment [4], the target named is T2, α2A-AR. In words: Gi-GloSensor cAMP assay. The settings on record: read-out: potency (pEC50) (converted); full agonist; printed pEC50 of 7.47. The format is cell-based.
For experiment [5], the target named is T1, kappa opioid receptor (κOR). In words: Gi-GloSensor cAMP assay. The format is cell-based. The source holds these as a separate data set.
The target of experiment [6] is T2, α2A-AR. Briefly: TRUPATH BRET2 G-protein activation. The format is cell-based. The following applies: agonist; Gi1, GoA, Gz.

Regarding `Cc1cccc(C)c1NC1=NCCCS1` [xylazine], the results for the EC50 (in experiment [1]; on α2A-AR [4]) were 1400 nM and 34 nM, respectively. In addition, the pKi entry at α2A-AR [2] was “Radioligand competitive binding assay confirms xylazine activity at κOR (A) and α2-AR (B)”. Further, the Ki in experiment [3] turned out to be 470 nM.

As for `Cc1cc(O)cc(C)c1NC1=NCCCS1` [4-hydroxy-xylazine], the pEC50 was 4-hydroxy-xylazine was less efficacious at κOR overall in experiment [5] (partial agonist) and “Xylazine, its metabolites, as well as other relevant adrenergic agonists exhibited agonist activity at α2A-AR” on α2A-AR [6].

Take `Cc1ccc(O)c(C)c1NC1=NCCCS1` [3-hydroxy-xylazine]: the pEC50 was 3-hydroxy-xylazine was as efficacious, though less potent, as xylazine and salvinorin A in experiment [5] (agonist); “Xylazine, its metabolites, as well as other relevant adrenergic agonists exhibited agonist activity at α2A-AR” at α2A-AR [6].
